Measured values: patent publication US12343350B2, “Istaroxime-containing intravenous formulation for the treatment of acute heart failure (AHF)” (Windtree Therapeutics, Inc., priority 2019, dated 2025)
pIC50: −log10 of the molar value. Counter-ions that a name gives are not always drawn. Like-named read-outs stand apart in the source and are kept apart here. Marks after values point to notes of the source that are not given here.

Assays:
SERCA2a [1] = settings: previous studies; cited from earlier work
dog renal Na,K-ATPase = dog renal Na,K-ATPase (Canis lupus familiaris (Dog) (Canis familiaris), UniProt P50997); test: Inhibition of dog renal Na,K-ATPase activity (32P-ATP); type: biochemical
Method: Kidneys were sliced and the outer medulla was dissected, pooled and suspended (1 g/10 ml) in a sucrose-histidine solution, containing 250 mM sucrose, 30 mM histidine and 5 mM EDTA, pH 7.2 and homogenized. The homogenate was centrifuged at 6.000 g for 15 min, the supernatant was decanted and centrifuged at 48.000 g for 30 min. The pellet was suspended in the sucrose-histidine buffer and incubated for 20 min with a sodium-dodecyl-sulphate (SDS) solution dissolved in a gradient buffer, containing 25 mM imidazole and 1 mM EDTA, pH 7.5. […] The pellet was suspended in the gradient buffer.
Increasing concentrations of the standard ouabain, or tested compound, were incubated with 0.3 μg of purified dog kidney enzyme for 10 min at 37° C. in 120 μl final volume of a medium containing 140 mM NaCl, 3 mM MgCl2, 50 mM Hepes-Tris, 3 mM ATP at a pH 7.5. Then, 10 μl of incubation solution containing 10 mM KCl and 20 nCi of ^32P-ATP (3-10 Ci/mmol, Perkin Elmer) was added, and the reaction was continued for 15 min at 37° C. The reaction was then stopped by acidification with 20% v/v ice-cold perchloric acid. ^32P was separated by centrifugation with activated Charcoal (Norit A, Serva) and the radioactivity was measured. The inhibitory activity was expressed as percent of the control samples carried out in the absence of ouabain or tested compound.

[2] = death due mainly to arrhythmias; cited from earlier work
SERCA2a [3] = molecular target: SERCA2a (Canis lupus familiaris (Dog) (Canis familiaris), UniProt O46674); test: SERCA2a ATPase activity in heart-derived SR microsomes from normal dog; type: biochemical; settings: normal dog SR microsomes
Method: Male beagle dogs were used for obtaining cardiac tissues for SERCA2a-enriched sarcoplasmic reticulum preparations. Healthy dogs were utilized for obtaining the data in Table 3. Chronic heart failure was induced in dogs by multiple intracoronary microembolizations with polystyrene latex microspheres ([…], Polysciences, Warrington, PA, USA) as described previously (see Sabbah H N et al., Am J Physiol. 1991; 260:H1379-84). The experiments were conducted in the General Pharmacology Department of Sigma-Tau, Rome, Italy.
Left ventricle tissues were dissected, homogenized in 4 volumes of 10 mM NaHCO3 (pH 7), 1 mM PMSF, 10 μg/ml Aprotinin and Leupeptin and centrifuged at 12.000 g for 15 minutes, as described in Nediani C. et al. (J Biol Chem. 1996; 271:19066-73). Supernatants were filtered and centrifuged at 100.000 g for 30 min. Contractile proteins were extracted by suspending the pellets with 0.6 M KCl, 30 mM Histidine, pH 7 and further centrifugation at 100.000 g for 30 min. Final pellets were reconstituted with 0.3 M Sucrose, 30 mM Histidine, pH 7.
SERCA2a activity was measured in vitro as ^32P-ATP hydrolysis at different Ca2^+ concentrations (100 to 3000 nM) in the absence and presence of the tested compounds as described previously (see Micheletti R. et al., Am J Card 2007; 99:24A-32A). Increasing concentrations of each compound (from 0.05 to 300 nM) were pre-incubated with 2 μg of microsomes for 5 min at 4° C. in 80 μl of a solution containing 100 mM KCl, 5 mM MgCl2, 1 μM A23187, 20 mM Tris, pH 7.5. Then, 20 μl of 5 mM Tris-ATP containing 50 nCi of ^32P-ATP (3-10 Ci/mmol, Perkin Elmer) was added. The ATP hydrolysis was continued for 15 min at 37° C. and was stopped by acidification with 100 μl of 20% v/v ice-cold perchloric acid. ^32P was separated by centrifugation with activated charcoal (Norit A, SERVA) and the radioactivity was measured. SERCA2a-dependent activity was identified as the portion of total hydrolytic activity inhibited by 10 μM cyclopiazonic acid (see Seidler N W. et al., J Biol Chem. 1989; 264:17816-23).
Dose-response curves were fitted by using a sigmoidal curve fitting software and the maximal velocity (Vmax) activity and the Kd Ca2^+ were calculated (Synergy Software KaleidaGraph 3.6).
The compounds disclosed herein were tested on SERCA2a ATPase activity prepared from normal and failing dogs in a range of concentrations from […]. The effect has been expressed as % increase of the Vmax activity of a control sample run in the absence of compound. Data are mean & SD, where n indicates the number of experiments.

[4] = Plasma levels of istaroxime and its metabolites in patients (HPLC-MS/MS); type: in vivo, human; settings: 24 h infusion of 0.5 or 1 μg/kg/min istaroxime, Caucasian and Chinese patients
Method: The quantitative determination of PST 2744 and its metabolite PST 2915 in human plasma was determined by the HPLC-MS/MS method that included a mobile phase of 70:30 acetonitrile/water, 1 mL/L 1M formic acid, and 1 mL/L 5M ammonium acetate. The flow rate was 1 mL/min, and the chromatographic separation was by reversed phase HPLC (Column: SYNERGI 4μ POLAR-RP80A 150×4.6 mm equipped with a Security-guard Phenomenex Polar-RP 4×3 mm). Detection was performed by MS/MS, and the acquisition mode was Multiple Reaction Monitoring (MRM).
The quantitative determination of istaroxime metabolies PST 2922 and PST 3093 in human plasma was also measured by the HPLC-MS/MS method. In this case, the mobile phase was 50:50 H2 O/CH3 CN (v/v) and 500 μL/L 98-100% HCOOH. The flow rate was 1 mL/min and chromatographic separation was done by reversed-phase HPLC (Column: Phenomenex Phenyl hexyl, 150×4.6 mm, equipped with a Phenomenex phenyl propyl guard-cartridge) under isocratic conditions. Detection was performed by MS/MS (376.0→282.0 amu for PST2922, 378.0→284.0 amu for PST 3093 and 362.0→268.0 amu for PST 3418, IS).

[5] = stimulation of cardiac pumping ability; cited from earlier work

Sequence of SERCA2a (Canis lupus familiaris (Dog) (Canis familiaris), UniProt O46674) (O46674 whole entry): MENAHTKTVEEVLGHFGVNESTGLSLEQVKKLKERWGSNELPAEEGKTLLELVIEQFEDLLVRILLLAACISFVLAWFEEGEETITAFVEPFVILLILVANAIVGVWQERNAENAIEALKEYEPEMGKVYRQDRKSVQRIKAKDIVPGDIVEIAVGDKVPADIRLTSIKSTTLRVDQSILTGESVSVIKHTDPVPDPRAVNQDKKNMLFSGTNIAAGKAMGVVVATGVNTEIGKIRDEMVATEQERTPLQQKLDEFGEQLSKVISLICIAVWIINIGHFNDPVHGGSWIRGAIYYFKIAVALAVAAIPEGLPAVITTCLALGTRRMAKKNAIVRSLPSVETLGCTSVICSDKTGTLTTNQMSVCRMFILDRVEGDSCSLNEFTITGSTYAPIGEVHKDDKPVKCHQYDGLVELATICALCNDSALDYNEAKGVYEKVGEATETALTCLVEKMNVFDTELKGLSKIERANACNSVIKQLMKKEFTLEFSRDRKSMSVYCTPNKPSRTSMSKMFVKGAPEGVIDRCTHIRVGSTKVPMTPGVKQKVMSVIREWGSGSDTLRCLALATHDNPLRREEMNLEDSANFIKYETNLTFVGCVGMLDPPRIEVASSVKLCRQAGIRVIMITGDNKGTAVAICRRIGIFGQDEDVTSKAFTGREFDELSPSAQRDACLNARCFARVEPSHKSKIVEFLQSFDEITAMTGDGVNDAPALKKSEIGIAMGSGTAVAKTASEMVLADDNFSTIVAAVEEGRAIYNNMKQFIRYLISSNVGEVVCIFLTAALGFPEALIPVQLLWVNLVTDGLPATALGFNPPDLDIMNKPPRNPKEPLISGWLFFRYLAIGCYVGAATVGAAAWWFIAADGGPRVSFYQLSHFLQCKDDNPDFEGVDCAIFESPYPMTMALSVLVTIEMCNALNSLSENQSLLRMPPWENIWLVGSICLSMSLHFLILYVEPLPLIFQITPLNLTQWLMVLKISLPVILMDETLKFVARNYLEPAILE

C[C@H]1O[C@@H](O[C@H]2[C@@H](O)C[C@H](O[C@H]3[C@@H](O)C[C@H](O[C@H]4CC[C@@]5(C)[C@H](CC[C@@H]6[C@@H]5C[C@@H](O)[C@]5(C)[C@@H](C7=CC(=O)OC7)CC[C@]65O)C4)O[C@@H]3C)O[C@@H]2C)C[C@H](O)[C@@H]1O [Digoxin]
SERCA2a activity stimulation (SERCA2a [1]): failed to stimulate
pIC50 (dog renal Na,K-ATPase; purified dog kidney enzyme, 37° C., read-out: IC50, inhibition of dog renal Na,K-ATPase): 6.74
serum concentration threshold above which increased risk of death [2]: 0.9 ng/mL

C[C@]12CCC(=NOCCN)CC1[C@H](O)CC1C2CC[C@]2(C)C(=O)CCC12 (stereo partly drawn) [PST 2915, (E,Z)-3-(2-Aminoethoxyimino)-6beta-hydroxyandrostan-17-one hydrochloride]
% increase vs control (Vmax) (SERCA2a [3]; 0.1 nM compound): 11%
% increase vs control (Vmax) (SERCA2a [3]; 10 nM compound): 16* %
pIC50 (dog renal Na,K-ATPase): 5.68
plasma concentration course during the infusion period [4]: continue to accumulate

COC(=O)N1CCN(Cc2cccc(NC(=O)Nc3ccc(C)nc3)c2F)CC1 [omecamtiv]
plasma levels of Hs TnT [5]: associated with an increase
